Counter-ions that a name gives are not always drawn. Like-named read-outs stand apart in the source and are kept apart here.

Holding throughout (assay type): cell-based, human
The test system of assay [1] is MOLM-14 (acute myeloid leukemia) cell line. Description: CellTiter-Glo luminescent cell viability assay, MOLM-14. The note with it: for viability at 4 µM: MOLM-14, compound at 4 μM; for viability at 4 µM / viability at 10 µM: 72 h; for viability at 10 µM: MOLM-14, compound at 10 μM; for EC50: MOLM-14 cell line, 72 h incubation, CellTiter-Glo, read-out: EC50, growth inhibition of MOLM-14. The procedure, abridged:
(§1)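 Cells were cultured at 37 °C, 5% CO2 with 10% FBS; adherent lines were plated overnight, suspension MOLM-14 plated 1 h before dosing. Compounds in H2O or DMSO were added at various concentrations for 72 h, and viability was read by luminescence. EC50 is the dose reducing signal to 50% of diluent control.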

For assay [2], the system named is A375 (malignant melanoma) cell line. In words: CellTiter-Glo luminescent cell viability assay, A375. The note with it: for viability at 4 µM: A375, compound at 4 μM; for viability at 4 µM / viability at 10 µM: 72 h; for viability at 10 µM: A375, compound at 10 μM; for EC50: A375 cell line, 72 h incubation, CellTiter-Glo, read-out: EC50, growth inhibition of A375. In short, it runs like this:
(§2)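 Adherent cells grow overnight, or suspension cells are seeded 1 h ahead; compound dilutions are then added and plates incubated 72 h at 37 °C. After 30 min at room temperature, CellTiter-Glo reagent is added and luminescence recorded. EC50 derives from signal relative to diluent control.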

Assay [3] concerns HCT-116 (colorectal carcinoma) cell line. Description: CellTiter-Glo luminescent cell viability assay, HCT-116. Conditions: for viability at 4 µM: HCT-116, compound at 4 μM; for viability at 4 µM / viability at 10 µM: 72 h; for viability at 10 µM: HCT-116, compound at 10 μM; for EC50: HCT-116 cell line, 72 h incubation, CellTiter-Glo, read-out: EC50, growth inhibition of HCT-116. The procedure, abridged:
as §2

The subject of assay [4] is Huh7 (hepatocellular carcinoma) cell line. Description: CellTiter-Glo luminescent cell viability assay, Huh7. The note with it: for viability at 4 µM: Huh7, compound at 4 μM; for viability at 4 µM / viability at 10 µM: 72 h; for viability at 10 µM: Huh7, compound at 10 μM; for EC50: Huh7 cell line, 72 h incubation, CellTiter-Glo, read-out: EC50, growth inhibition of Huh7. The procedure, abridged:
as §1

The test system of assay [5] is 786-O (renal adenocarcinoma) cell line. In words: CellTiter-Glo luminescent cell viability assay, 786-O. The note with it: for viability at 4 µM / viability at 10 µM: 786-O, 72 h; for viability at 4 µM: compound at 4 μM; for viability at 10 µM: compound at 10 μM; for EC50: 786-O cell line, 72 h incubation, CellTiter-Glo, read-out: EC50, growth inhibition of 786-O. The procedure, abridged:
as §2

The test system of assay [6] is HepG2 (hepatocellular carcinoma) cell line. Description: CellTiter-Glo luminescent cell viability assay, HepG2. The note with it: for viability at 4 µM / viability at 10 µM: HepG2, HepG, 72 h; for viability at 4 µM: compound at 4 μM; for viability at 10 µM: compound at 10 μM; for EC50: HepG2 cell line, 72 h incubation, CellTiter-Glo, read-out: EC50, growth inhibition of HepG2. The procedure, abridged:
as §1

Consider `Cc1ccnc(Nc2ccc(Nc3nc4ccccc4c(N4CCC(NC(C)(C)C)CC4)c3C)cc2)n1` [Compound 532Me, 2-[4-(4-methylpyrimidin-2-ylamino)phenylamino]-3-methyl-4-(4-tert-butylaminopiperidin-1-yl)quinoline], for which the viability at 4 µM is 65.5% in assay [1] (Homo sapiens); 23.3% in assay [2] (Homo sapiens, A-375); 16% in assay [3] (Homo sapiens); 55.9% in assay [4] (Homo sapiens, Huh-7); 0.3% in assay [5] (Homo sapiens, 786-0); 12.3% in assay [6] (Homo sapiens). Further, the viability at 10 µM in assay [1] (Homo sapiens) came out at 0.4%; in assay [2] (Homo sapiens, A-375), 0.3%; in assay [3] (Homo sapiens), 0.3%; in assay [4] (Homo sapiens, Huh-7) it was 0.5%; in assay [5] (Homo sapiens, 786-0) it was 0.3%; in assay [6] (Homo sapiens), 0.3%.
Take `N#Cc1c(NCc2ccc(Cl)cc2)nc2ccccc2c1N1CCCC(Oc2ccccc2)C1` (stereo not drawn) [Compound 3206CN, 2-(4-chlorobenzylamino)-3-cyano-4-(3-phenoxypiperidin-1-yl)quinoline]: the viability at 4 µM in assay [1] (Homo sapiens) is 96%; in assay [2] (Homo sapiens, A-375), 111%; in assay [3] (Homo sapiens), 97.9%; in assay [4] (Homo sapiens, Huh-7) it was 107%; in assay [5] (Homo sapiens, 786-0), 79.9%; in assay [6] (Homo sapiens) it was 72.4%. Also, the viability at 10 µM in assay [1] (Homo sapiens) turned out to be 107%; in assay [2] (Homo sapiens, A-375), 104%; in assay [3] (Homo sapiens), 91.2%; in assay [4] (Homo sapiens, Huh-7), 95.1%; in assay [5] (Homo sapiens, 786-0), 75.1%; in assay [6] (Homo sapiens), 65%.
`Cc1cc(Nc2nc3ccccc3c(N3CCC(NC(C)(C)C)CC3)c2C#N)ccc1Nc1nccc(C(F)(F)F)n1` [Compound 534CN, 2-[3-methyl-4-(4-trifluoromethylpyrimidin-2-ylamino)phenylamino]-3-cyano-4-(4-tert-butylaminopiperidin-1-yl)quinoline]: the viability at 4 µM was 0.4% in assay [1] (Homo sapiens); 0.4% in assay [2] (Homo sapiens, A-375); 0.4% in assay [3] (Homo sapiens); 49.1% in assay [4] (Homo sapiens, Huh-7); 2.1% in assay [5] (Homo sapiens, 786-0); 13% in assay [6] (Homo sapiens). Further, the viability at 10 µM in assay [1] (Homo sapiens) turned out to be 0.3%; in assay [2] (Homo sapiens, A-375), 0.2%; in assay [3] (Homo sapiens), 0.2%; in assay [4] (Homo sapiens, Huh-7), 0.4%; in assay [5] (Homo sapiens, 786-0), 0.2%; in assay [6] (Homo sapiens), 0.2%.
As to `N#Cc1c(NCc2ccc(Cl)cc2)nc2ccccc2c1N1CCC(Oc2ccc(F)cc2)C1` (stereo not drawn) [Compound 3338CN, 2-(4-chlorobenzylamino)-3-cyano-4-[3-(4-fluorophenoxy)pyrrolidin-1-yl]quinoline], the viability at 4 µM was 112% in assay [1] (Homo sapiens); 94.9% in assay [2] (Homo sapiens, A-375); 94.3% in assay [3] (Homo sapiens); 96.9% in assay [4] (Homo sapiens, Huh-7); 93.3% in assay [5] (Homo sapiens, 786-0); 98.8% in assay [6] (Homo sapiens). The viability at 10 µM in assay [1] (Homo sapiens) came out at 107%; in assay [2] (Homo sapiens, A-375) it was 93.4%; in assay [3] (Homo sapiens), 87.6%; in assay [4] (Homo sapiens, Huh-7) it was 101%; in assay [5] (Homo sapiens, 786-0), 59.4%; in assay [6] (Homo sapiens) it was 92.2%.
Regarding `Cc1cc(C)nc(Nc2ccc(Nc3nc4ccccc4c(N4CCC(NC(C)(C)C)CC4)c3C#N)cc2C)n1` [Compound 502CN, 2-[4-(4,6-dimethyl-2-pyrimidinamino)-3-methyl-phenylamino]-3-cyano-4-(4-tert-butylaminopiperidin-1-yl)-quinoline], the EC50 in assay [1] (Homo sapiens) lay in the range of 5 to 10 µM; in assay [2] (Homo sapiens, A-375) it was 0.5 to 5 µM; in assay [3] (Homo sapiens), 0.5 to 5 µM; in assay [4] (Homo sapiens, Huh-7), 5 to 10 µM; in assay [5] (Homo sapiens, 786-0), 0.5 to 5 µM; in assay [6] (Homo sapiens), 0.5 to 5 µM.
Take `Cc1cc2c(C)nc(Nc3ccc(Nc4nc5ccccc5c(N5CCC(NC(C)(C)C)CC5)c4C#N)cc3C)nc2o1` [Compound 512CN, 2-[3-methyl-4-(4,6-dimethylfuro[2,3-d]pyrimidin-2-ylamino)phenylamino]-3-cyano-4-(4-tert-butylaminopiperidin-1-yl)quinoline]: the viability at 4 µM was determined as 0.2% in assay [1] (Homo sapiens); 0.3% in assay [2] (Homo sapiens, A-375); 0.2% in assay [3] (Homo sapiens); 0.2% in assay [4] (Homo sapiens, Huh-7); 0.2% in assay [5] (Homo sapiens, 786-0); 0.2% in assay [6] (Homo sapiens). For the same molecule, the viability at 10 µM amounted to 0.3% in assay [1] (Homo sapiens); 0.2% in assay [2] (Homo sapiens, A-375); 0.2% in assay [3] (Homo sapiens); 0.3% in assay [4] (Homo sapiens, Huh-7); 0.2% in assay [5] (Homo sapiens, 786-0); 0.2% in assay [6] (Homo sapiens).
On to `Clc1ccc(CNc2cc(N3CC(N4CCOCC4)C3)c3ccccc3n2)cc1` [Compound 118, 2-(4-chlorobenzylamino)-4-[3-(morpholin-4-yl)azetidin-1-yl]quinoline hydrochloride], for which the EC50 in assay [1] (Homo sapiens) was 5 to 10 µM; in assay [2] (Homo sapiens, A-375), 5 to 10 µM; in assay [3] (Homo sapiens), 5 to 10 µM; in assay [4] (Homo sapiens, Huh-7), 5 to 10 µM; in assay [5] (Homo sapiens, 786-0), 0.5 to 5 µM; in assay [6] (Homo sapiens), 5 to 10 µM.
Take `CC(C)OC1CCN(c2cc(NCc3ccc(Cl)cc3)nc3ccccc23)CC1` [Compound 2918, 2-(4-chlorobenzylamino)-4-[4-(iso-propoxy)-piperidin-1-yl]-quinoline hydrochloride]: the EC50 in assay [1] (Homo sapiens) lay in the range of 0.5 to 5 µM; in assay [2] (Homo sapiens, A-375), 5 to 10 µM; in assay [3] (Homo sapiens), 0.5 to 5 µM; in assay [4] (Homo sapiens, Huh-7), 5 to 10 µM; in assay [5] (Homo sapiens, 786-0), 5 to 10 µM; in assay [6] (Homo sapiens), 0.5 to 5 µM.
As to `OC[C@@H]1CCCN1c1cc(NCc2ccc(Cl)cc2)nc2ccccc12` [Compound 2308, (2S) 2-(4-chlorobenzylamino)-4-[2-(hydroxymethyl)pyrrolidin-1-yl]quinoline, hydrochloride], the EC50 in assay [1] was 0.5 to 5 µM; in assay [2], 0.5 to 5 µM; in assay [3], 5 to 10 µM; in assay [4], 0.5 to 5 µM; in assay [5], 5 to 10 µM; in assay [6], 0.5 to 5 µM.
In the case of `Cc1cc(OC2CCN(c3c(C#N)c(NCc4ccc(Cl)cc4)nc4ccccc34)CC2)no1` [Compound 2978CN, 2-(4-chlorobenzylamino)-3-cyano-4-{4-[(5-methylisoxazol-3-yl)oxy]piperidin-1-yl}quinoline], the viability at 4 µM worked out at 115% in assay [1] (Homo sapiens); 93.1% in assay [2] (Homo sapiens, A-375); 88.2% in assay [3] (Homo sapiens); 87% in assay [4] (Homo sapiens, Huh-7); 96.9% in assay [5] (Homo sapiens, 786-0); 94.5% in assay [6] (Homo sapiens). For the same molecule, the viability at 10 µM was found to be 77.5% in assay [1] (Homo sapiens); 86.8% in assay [2] (Homo sapiens, A-375); 50.1% in assay [3] (Homo sapiens); 74.2% in assay [4] (Homo sapiens, Huh-7); 89.3% in assay [5] (Homo sapiens, 786-0); 78.1% in assay [6] (Homo sapiens).
For `OC[C@H]1CCCN1c1cc(NCc2ccc(Cl)cc2)nc2ccccc12` [Compound 2380, (2R)-2-(4-chlorobenzylamino)-4-[2-(hydroxymethyl)-pyrrolidin-1-yl]-quinoline hydrochloride], the EC50 in assay [1] (Homo sapiens) was in the range of 0.5 to 5 µM; in assay [2] (Homo sapiens, A-375), 0.5 to 5 µM; in assay [3] (Homo sapiens), 0.5 to 5 µM; in assay [4] (Homo sapiens, Huh-7), 0.5 to 5 µM; in assay [5] (Homo sapiens, 786-0), 5 to 10 µM; in assay [6] (Homo sapiens) it was 0.5 to 5 µM.
Consider `Cc1cc(Nc2nc3ccccc3c(N3CCC(NC(C)(C)C)CC3)c2C#N)ccc1Nc1ccnc(-c2cccnc2)n1` [Compound 522CN, 2-{3-methyl-4-[2-(pyridin-3-yl)pyrimidin-4-ylamino]phenylamino}-3-cyano-4-(4-tert-butylaminopiperidin-1-yl)quinoline], for which the viability at 4 µM worked out at 0.3% in assay [1] (Homo sapiens); 0.3% in assay [2] (Homo sapiens, A-375); 0.3% in assay [3] (Homo sapiens); 0.4% in assay [4] (Homo sapiens, Huh-7); 0.2% in assay [5] (Homo sapiens, 786-0); 0.3% in assay [6] (Homo sapiens). For the same molecule, the viability at 10 µM in assay [1] (Homo sapiens) stood at 0.3%; in assay [2] (Homo sapiens, A-375) it was 0.3%; in assay [3] (Homo sapiens) it was 0.2%; in assay [4] (Homo sapiens, Huh-7), 0.4%; in assay [5] (Homo sapiens, 786-0) it was 0.2%; in assay [6] (Homo sapiens), 0.2%.

For the origin of these results see patent publication US10577362B2, “Substituted 2, 4-diamino-quinoline derivatives for use in the treatment of proliferative diseases” (GENOSCIENCE PHARMA, priority 2016, dated 2020).
